From patent US20250262167A1, “COMPOUNDS, TARGETS AND PATHWAYS FOR MACROPHAGE MODULATION” (Massachusetts Institute of Technology, priority 2020, published 2025)

Tests used:
[1] = tested on: PKM2; assay: PKM enzymatic activity (colorimetric kit) in treated ImKCs; assay type: cell-based, mouse; settings: parental ImKCs, 50 nM, β-arrestin2-dependent
Protocol: Data are presented as the mean±sd (n=4). […] Data are presented as the mean±sd (n=6).
FIGS. 29A-29B show comparison of DPI's effect on glycolysis in wild-type and Pkm^−/− BMDMs. […] FIGS. 29C-29D show activation of PKM2 and GAPDH enzymatic activity by DPI is inhibited by ERK1/2 inhibitor. ImKCs were treated with DMSO or DPI alone (500 nM) or DPI plus ERK1/2 inhibitor (SCH772984, […]) for 6 hrs and the enzymatic activities of PKM2 (c) and GAPDH (d) were measured by colorimetric assay kits (Biovision). Data are presented as the mean±sd (n=6).
The enzymatic activities of PKM and GAPDH were measured using the pyruvate kinase activity assay kit (Biovision, #K709) and GAPDH activity assay kit (Biovision, #K680) according to the manufacturer's protocols, respectively.

[2] = tested on: BMDMs (wild-type and Pkm−/−); settings: dose-dependent
Protocol: WT and Pkm^−/− BMDMs were not treated or treated with DPI (50 and 500 nM) for 24 hrs. The transcript levels of Pkm, Ldha, Hk2 and c-Myc were measured by real-time qPCR. Data were collected from two independent experiments with 3 biological replicates per group. Transcriptional level was normalized to β-actin first and then to DMSO control. Data are presented as the mean±sd. […] Transfected cells were not treated or treated with DPI (50 and 500 nM) for 6 hrs and luciferase activities were measured. Data are presented as the mean±sd (n=5). P values were calculated by student t-test. * P<0.05, ** P<0.01, *** P<0.001, **** P<0.0001.
To test this mechanism, we first determined if PKM2 is required for DPI-induced transcription of glycolytic genes. BMDMs were prepared from wild-type and Pkm^−/− mice, incubated with or without 50 and 500 nM DPI for 24 hours, and the transcript levels of key glycolytic genes were quantified by RT-PCR.
We also determined if c-Myc is induced by DPI in a PKM2-dependent manner. […] To determine whether DPI activates c-Myc transcriptional activity, we performed c-Myc luciferase reporter assays in the parental ImKCs and Pkm^−/− ImKCs.

[3] = HFD 16 weeks
Protocol: At week 15 plus 3 days, mice from FIG. 32A were starved overnight (12˜16 hrs) with only water. Glucose (1 mg/kg) was injected intraperitoneally and blood glucose levels were measured at the indicated time. AUC were calculated for statistics (right panel).
Liver samples fixed in 10% buffered formalin were embedded in paraffin, sliced (2 μm sections), and stained with hematoxylin and eosin (H&E). Histological examination for morphological changes was performed in a blinded manner. Liver sections were scored according to the criteria of the NAFLD activity score (NAS).
The GTT were performed in mice 19 weeks after feeding with HFD or NC. For GTT, mice were fasted overnight, followed by an intraperitoneal injection of 1 g/kg glucose. […] Blood was obtained from the tail vein before (0 min) and after (15, 30, 60, 90 and 120 min) the injection of glucose or insulin. Glucose levels were measured using an automatic glucometer (Roche Diagnostics, Rotkreuz, Switzerland).
B6 mice were fed with HFD for 16 weeks.

[4] = tested on: human Kupffer cells from NAFLD patients; settings: 500 nM, ex vivo, 24 hours
Protocol: CD14^+ KCs were sorted from single cell suspension of NAFLD human liver biopsies (n=2) and treated with DMSO or DPI (500 nM) for 24 hrs, followed by RNAseq to quantify gene expression.
Human liver biopsies were obtained from livers procured from deceased donors deemed unacceptable for liver transplantation. Samples were collected with appropriate institutional ethics approval from The First Affiliated Hospital of Jilin University. All experiments were performed in accordance with the relevant guidelines and regulations. In addition, written informed consent was obtained from each subject. During organ retrieval, donor liver grafts were perfused in situ with cold (HTK) solution (Methapharm) to thoroughly flush out circulating cells, leaving only tissue resident cells that are then used to prepare a single-cell suspension to isolate immune cells. The unused liver caudate lobe post liver transplantation was collected and flushed with HBS+EGTA at 4° C. to remove any non-liver resident cells. Single-cell isolation from the resected caudate lobe was performed with a modified two-step collagenase procedure (MacFarland et al. 2017 ACnano). Single cell suspension was stained with anti-CD45 to sort all immune cells for scRNAseq or anti-CD14 to sort KCs for in vitro treatment by flow cytometry (BD Aria).
RNAs were extracted with RNeasy MinElute Kit (Qiagen), converted into cDNA and sequenced using Next-Generation Sequencing (Illumina). RNA-seq data were aligned to the human genome (version hg19) and raw counts of each genes of each sample were calculated with bowtie2 2.2.3 (Langmead et al. 2009) and RSEM 1.2.15 (Li et al. 2011). Differential expression analysis was performed using the program edgeR at P<0.05 with a two-fold change (Robinson et al. 2010). The gene expression level across different samples was normalized and quantified using the function of cpm. DEGs were annotated using online functional enrichment analysis tool DAVID (Huang et al. 2007). […]

[5] = tested on: B16F10 melanoma cells; assay: Tumor growth inhibition by treated macrophages or their conditioned medium; assay type: cell-based, mouse
Protocol: DEGs were identified by edgeR at P<0.05 with at least 2 fold-change. Data for genes that were not classified as differentially expressed are plotted in black. […] Mouse BMMs were cultured in normal medium with or without 2.5 μM thiostrepton for 24 hrs (group 1), or cultured in B16F10 tumor cell conditioned medium (CM) with or without 2.5 μM thiostrepton for 24 hrs (group 2), or cultured with B16F10 tumor cell CM for 24 hrs first and then treated with 2.5 μM thiostrepton for another 24 hrs (group 3). The transcript levels of the indicated genes were quantified by qPCR. Data were summarized from two independent experiments. […] Mouse BMMs were treated with thiostrepton for 24 hrs. […] The number of tumor cells were quantified by flow cytometry after subtracting macrophages from total number of cells. […]
Conditioned medium (CM) was collected and filtered. […] The number of tumor cells were quantified by flow cytometry. […] Mouse BMMs (FIG. 14B) or hMDM (FIG. 14C) were treated with […] thiostrepton for 24 hrs, then co-cultured with equal number of eFluro670 and anti-CD20 labelled human B-cell lymphoma cells for 2 hrs, and analyzed by flow cytometry. […]
Mouse bone marrow-derived macrophages (mBMM) were prepared as described previously^54. […] Expression of Arg, Fizz1 and Vegfa were quantified by qPCR to assess the development of TAMs. […]

[6] = tested on: subcutaneous B16F10 tumors; assay: B16F10 melanoma model in B6 mice; assay type: in vivo, mouse; settings: for tumor growth: alone; for tumor growth, with TA99: combination with TA99
[7] = flow cytometry, vs vehicle or TA99

Row | Compound | PKM2 enzymatic activity [1] | transcription of c-Myc [2] | glucose tolerance [3] | lipid droplet, steatosis and collagen deposition in the liver [3] | weight gain ([3]; 2 mg/kg every 5 days from week 9) | weight of iWAT ([3]; vs vehicle) | expression of DAM markers APOE, CLEC10A, TREM2 and C1QA [4] | expression of genes associated with chemokine-mediated signaling, chemotaxis and inflammatory response [4] | expression of glycolytic genes [4] | melanoma cells in conditioned medium from treated macrophages ([5]; 12 hrs, vs untreated or heat-inactivated conditioned medium) | melanoma cells after co-culture with treated macrophages ([5]; BMMs treated 24 hrs, co-culture 12 hrs, vs untreated macrophages, dose-dependent) | tumor growth ([6]; I.P., 150 or 300 mg/kg, dosage-dependent) | tumor growth, with TA99 ([6]; I.P., 150 or 300 mg/kg) | expression of Tnf, Il1b, Cxcl1 and Cxcl2 in TAMs ([6]; RNA-seq, day 18, I.P. or S.C.) | macrophages and monocytes in tumors ([6]; day 18, flow cytometry, vs vehicle or TA99) | Arg1 in TAM [6, 7] | iNOS and CD86 in TAM [6, 7] | tumor growth ([6]; para-tumor S.C., 20 mg/kg) | tumor growth, with TA99 ([6]; para-tumor S.C., 20 mg/kg) | TNFα+ IFNγ+ NK cells in tumors ([6]; vs vehicle or TA99)
1 | c1ccc2c(c1)[I+]c1ccccc1-2 [Diphenyleneiodonium chloride] | immediate increase | stimulated the transcription | increased | reduced | significantly reduced | significantly lower | downregulated | suppressed | upregulated | – | – | – | – | – | – | – | – | – | – | –
2 | C=C(NC(=O)C(=C)NC(=O)c1csc(C2=N[C@@H]3c4csc(n4)[C@H]4NC(=O)c5csc(n5)[C@H]([C@](C)(O)[C@@H](C)O)NC(=O)[C@H]5CSC(=N5)/C(=C/C)NC(=O)[C@H]([C@@H](C)O)NC(=O)c5csc(n5)[C@]3(CC2)NC(=O)[C@H](C)NC(=O)C(=C)NC(=O)[C@H](C)NC(=O)[C@H]([C@@H](C)CC)N[C@@H]2C=Cc3c([C@H](C)O)cc(nc3[C@H]2O)C(=O)O[C@@H]4C)n1)C(N)=O [Thiostrepton] | – | – | – | – | – | – | – | – | – | more melanoma cells were lost | Significantly more melanoma cells were lost | strongly suppressed | additively | significantly upregulated | elevated levels | decreased levels | elevated levels | suppressed the tumor growth | additive effects | increased number
